{"source": "patent US6737383B1", "about": "“Herbicidal oxadiazolidines” (priority 1999, dated 2004)", "key": {"blackgrass": {"tested_on": "blackgrass", "assay": "Test B pre/postemergence blackgrass", "format": "in vivo, Alopecurus myosuroides", "in_short": "(§1)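 Herbicidal effect was estimated by eye on a ten-point control scale after plants spent twelve to sixteen days in a greenhouse following soil or foliar treatment. Foliar sprays targeted plants at one to four leaves; all doses were formulated in a non-phytotoxic solvent with surfactant.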"}, "surinam grass": {"tested_on": "surinam grass", "assay": "Test B pre/postemergence surinam grass", "format": "in vivo, Brachiaria decumbens", "in_short": "as §1"}, "cocklebur": {"tested_on": "cocklebur", "assay": "Test B pre/postemergence cocklebur", "format": "in vivo, Xanthium strumarium", "in_short": "as §1"}, "corn": {"tested_on": "corn", "assay": "Test B pre/postemergence corn", "format": "in vivo, Zea mays", "in_short": "as §1"}, "crabgrass": {"tested_on": "crabgrass", "assay": "Test B pre/postemergence crabgrass", "format": "in vivo, Digitaria sanguinalis", "in_short": "as §1"}, "giant foxtail": {"tested_on": "giant foxtail", "assay": "Test B pre/postemergence giant foxtail", "format": "in vivo, Setaria faberii", "in_short": "as §1"}, "pigweed": {"tested_on": "pigweed", "assay": "Test B pre/postemergence pigweed", "format": "in vivo, Amaranthus retroflexus", "in_short": "as §1"}, "rape": {"tested_on": "rape", "assay": "Test B pre/postemergence rape", "format": "in vivo, Brassica napus", "in_short": "as §1"}, "soybean": {"tested_on": "soybean", "assay": "Test B pre/postemergence soybean", "format": "in vivo, Glycine max", "in_short": "as §1"}, "sugar beet": {"tested_on": "sugar beet", "assay": "Test B pre/postemergence sugar beet", "format": "in vivo, Beta vulgaris", "in_short": "as §1"}, "wheat": {"tested_on": "wheat", "assay": "Test B pre/postemergence wheat", "format": "in vivo, Triticum aestivum", "in_short": "as §1"}, "purple nutsedge": {"tested_on": "purple nutsedge", "assay": "Test B pre/postemergence purple nutsedge", "format": "in vivo, Cyperus rotundus", "in_short": "as §1"}, "rice": {"tested_on": "rice", "assay": "Test B flood test rice", "format": "in vivo, Oryza sativa", "in_short": "(§2)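 Read-out is a visual response score from 0 (no effect) to 10 (complete control), assigned by comparison with untreated controls. Treatment was applied at the 2-leaf stage, and plants stayed in the greenhouse for twelve to sixteen days before scoring.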"}, "smallflower flatsedge": {"tested_on": "smallflower flatsedge", "assay": "Test B flood test smallflower flatsedge", "format": "in vivo, Cyperus difformis", "in_short": "as §2"}, "duck salad": {"tested_on": "duck salad", "assay": "Test B flood test duck salad", "format": "in vivo, Heteranthera limosa", "in_short": "as §2"}, "bamyardgrass": {"tested_on": "bamyardgrass", "assay": "Test B flood test barnyardgrass", "format": "in vivo, Echinochloa crus-galli", "in_short": "as §2"}, "[1]": {"conditions": "Preemergence, Rate 62 g/ha, scale of 0 to 10 where 0 is no effect and 10 is complete control"}, "[2]": {"conditions": "Preemergence, Rate 250 g/ha, scale of 0 to 10 where 0 is no effect and 10 is complete control"}, "[3]": {"conditions": "Preemergence, Rate 500 g/ha, scale of 0 to 10 where 0 is no effect and 10 is complete control"}, "[4]": {"conditions": "Rate 62 g/ha, Postemergence, scale of 0 to 10 where 0 is no effect and 10 is complete control"}, "[5]": {"conditions": "Rate 125 g/ha, Postemergence, scale of 0 to 10 where 0 is no effect and 10 is complete control"}, "[6]": {"conditions": "Rate 125 g/ha, Preemergence, scale of 0 to 10 where 0 is no effect and 10 is complete control"}, "[7]": {"conditions": "Rate 250 g/ha, Postemergence, scale of 0 to 10 where 0 is no effect and 10 is complete control"}, "[8]": {"conditions": "Rate 500 g/ha, Postemergence, scale 0 to 10, 0 no effect, 10 complete control"}, "[9]": {"conditions": "Rate 62 g/ha, headed Pre-emergence (flood test species), scale 0 to 10 (0 no effect, 10 complete control)"}, "[10]": {"conditions": "Rate 125 g/ha, Pre-emergence, flood test species, scale 0 to 10 where 0 is no effect and 10 is complete control"}, "[11]": {"conditions": "Rate 250 g/ha, Pre-emergence, flood-test species, scale 0 to 10, 0 is no effect, 10 is complete control"}, "[12]": {"conditions": "Rate 500 g/ha, Pre-emergence, flood test species, scale 0 to 10 (0 no effect, 10 complete control)"}}, "data": [{"smiles": "CC(C)N(C(=O)n1oc(=O)n(-c2ccsc2)c1=O)c1ccc(F)cc1", "note": "[Compound 272]", "values": [{"measurement": "Blackgrass plant response rating", "setting": "blackgrass; [1]", "value": 0}, {"measurement": "Blackgrass plant response rating", "setting": "blackgrass; [2]", "value": 0}, {"measurement": "Plant response rating, Blackgrass", "setting": "blackgrass; [3]", "value": 0}, {"measurement": "Blackgrass plant response rating", "setting": "blackgrass; [4]", "value": 0}, {"measurement": "Blackgrass plant response rating", "setting": "blackgrass; [5]", "value": 0}, {"measurement": "Blackgrass plant response rating", "setting": "blackgrass; [6]", "value": 0}, {"measurement": "Plant response rating, Blackgrass", "setting": "blackgrass; [7]", "value": 2}, {"measurement": "Blackgrass plant response rating", "setting": "blackgrass; [8]", "value": 6}, {"measurement": "B. signalgrass plant response rating", "setting": "surinam grass; [1]", "value": 0}, {"measurement": "B. signalgrass plant response rating", "setting": "surinam grass; [2]", "value": 0}, {"measurement": "Plant response rating, B. signalgrass", "setting": "surinam grass; [3]", "value": 0}, {"measurement": "B. signalgrass plant response rating", "setting": "surinam grass; [4]", "value": 0}, {"measurement": "B. signalgrass plant response rating", "setting": "surinam grass; [5]", "value": 0}, {"measurement": "B. signalgrass plant response rating", "setting": "surinam grass; [6]", "value": 0}, {"measurement": "Plant response rating, B. signalgrass", "setting": "surinam grass; [7]", "value": 0}, {"measurement": "B. signalgrass plant response rating", "setting": "surinam grass; [8]", "value": 0}, {"measurement": "Cocklebur plant response rating", "setting": "cocklebur; [1]", "value": 0}, {"measurement": "Cocklebur plant response rating", "setting": "cocklebur; [2]", "value": 0}, {"measurement": "Plant response rating, Cocklebur", "setting": "cocklebur; [3]", "value": 0}, {"measurement": "Cocklebur plant response rating", "setting": "cocklebur; [4]", "value": 0}, {"measurement": "Cocklebur plant response rating", "setting": "cocklebur; [5]", "value": 0}, {"measurement": "Cocklebur plant response rating", "setting": "cocklebur; [6]", "value": 0}, {"measurement": "Plant response rating, Cocklebur", "setting": "cocklebur; [7]", "value": 1}, {"measurement": "Cocklebur plant response rating", "setting": "cocklebur; [8]", "value": 1}, {"measurement": "Corn plant response rating", "setting": "corn; [1]", "value": 0}, {"measurement": "Corn plant response rating", "setting": "corn; [2]", "value": 0}, {"measurement": "Plant response rating, Corn", "setting": "corn; [3]", "value": 0}, {"measurement": "Corn plant response rating", "setting": "corn; [4]", "value": 0}, {"measurement": "Corn plant response rating", "setting": "corn; [5]", "value": 0}, {"measurement": "Corn plant response rating", "setting": "corn; [6]", "value": 0}, {"measurement": "Plant response rating, Corn", "setting": "corn; [7]", "value": 0}, {"measurement": "Corn plant response rating", "setting": "corn; [8]", "value": 0}, {"measurement": "Crabgrass plant response rating", "setting": "crabgrass; [1]", "value": 0}, {"measurement": "Crabgrass plant response rating", "setting": "crabgrass; [2]", "value": 0}, {"measurement": "Plant response rating, Crabgrass", "setting": "crabgrass; [3]", "value": 2}, {"measurement": "Crabgrass plant response rating", "setting": "crabgrass; [5]", "value": 0}, {"measurement": "Crabgrass plant response rating", "setting": "crabgrass; [6]", "value": 0}, {"measurement": "Plant response rating, Crabgrass", "setting": "crabgrass; [7]", "value": 0}, {"measurement": "Crabgrass plant response rating", "setting": "crabgrass; [8]", "value": 0}, {"measurement": "Giant foxtail plant response rating", "setting": "giant foxtail; [1]", "value": 2}, {"measurement": "Giant foxtail plant response rating", "setting": "giant foxtail; [2]", "value": 6}, {"measurement": "Plant response rating, Giant foxtail", "setting": "giant foxtail; [3]", "value": 6}, {"measurement": "Giant foxtail plant response rating", "setting": "giant foxtail; [5]", "value": 0}, {"measurement": "Giant foxtail plant response rating", "setting": "giant foxtail; [6]", "value": 5}, {"measurement": "Plant response rating, Giant foxtail", "setting": "giant foxtail; [7]", "value": 0}, {"measurement": "Giant foxtail plant response rating", "setting": "giant foxtail; [8]", "value": 0}, {"measurement": "Redroot pigweed plant response rating", "setting": "pigweed; [1]", "value": 0}, {"measurement": "Redroot pigweed plant response rating", "setting": "pigweed; [2]", "value": 0}, {"measurement": "Plant response rating, Redroot pigweed", "setting": "pigweed; [3]", "value": 3}, {"measurement": "Redroot pigweed plant response rating", "setting": "pigweed; [5]", "value": 0}, {"measurement": "Redroot pigweed plant response rating", "setting": "pigweed; [6]", "value": 0}, {"measurement": "Plant response rating, Redroot pigweed", "setting": "pigweed; [7]", "value": 2}, {"measurement": "Redroot pigweed plant response rating", "setting": "pigweed; [8]", "value": 4}, {"measurement": "Rape plant response rating", "setting": "rape; [1]", "value": 0}, {"measurement": "Rape plant response rating", "setting": "rape; [2]", "value": 0}, {"measurement": "Plant response rating, Rape", "setting": "rape; [3]", "value": 0}, {"measurement": "Rape plant response rating", "setting": "rape; [5]", "value": 0}, {"measurement": "Rape plant response rating", "setting": "rape; [6]", "value": 0}, {"measurement": "Plant response rating, Rape", "setting": "rape; [7]", "value": 0}, {"measurement": "Rape plant response rating", "setting": "rape; [8]", "value": 0}, {"measurement": "Soybean plant response rating", "setting": "soybean; [1]", "value": 0}, {"measurement": "Soybean plant response rating", "setting": "soybean; [2]", "value": 0}, {"measurement": "Plant response rating, Soybean", "setting": "soybean; [3]", "value": 0}, {"measurement": "Soybean plant response rating", "setting": "soybean; [5]", "value": 1}, {"measurement": "Soybean plant response rating", "setting": "soybean; [6]", "value": 0}, {"measurement": "Plant response rating, Soybean", "setting": "soybean; [7]", "value": 1}, {"measurement": "Soybean plant response rating", "setting": "soybean; [8]", "value": 1}, {"measurement": "Sugarbeets plant response rating", "setting": "sugar beet; [1]", "value": 0}, {"measurement": "Sugarbeets plant response rating", "setting": "sugar beet; [2]", "value": 0}, {"measurement": "Plant response rating, Sugarbeets", "setting": "sugar beet; [3]", "value": 0}, {"measurement": "Sugarbeets plant response rating", "setting": "sugar beet; [5]", "value": 0}, {"measurement": "Sugarbeets plant response rating", "setting": "sugar beet; [6]", "value": 0}, {"measurement": "Plant response rating, Sugarbeets", "setting": "sugar beet; [7]", "value": 0}, {"measurement": "Sugarbeets plant response rating", "setting": "sugar beet; [8]", "value": 0}, {"measurement": "Wheat plant response rating", "setting": "wheat; [1]", "value": 0}, {"measurement": "Wheat plant response rating", "setting": "wheat; [2]", "value": 0}, {"measurement": "Plant response rating, Wheat", "setting": "wheat; [3]", "value": 0}, {"measurement": "Wheat plant response rating", "setting": "wheat; [5]", "value": 0}, {"measurement": "Wheat plant response rating", "setting": "wheat; [6]", "value": 0}, {"measurement": "Plant response rating, Wheat", "setting": "wheat; [7]", "value": 0}, {"measurement": "Wheat plant response rating", "setting": "wheat; [8]", "value": 0}, {"measurement": "Nutsedge plant response rating", "setting": "purple nutsedge; [1]", "value": 0}, {"measurement": "Nutsedge plant response rating", "setting": "purple nutsedge; [2]", "value": 0}, {"measurement": "Plant response rating, Nutsedge", "setting": "purple nutsedge; [3]", "value": 0}, {"measurement": "Nutsedge plant response rating", "setting": "purple nutsedge; [5]", "value": 0}, {"measurement": "Nutsedge plant response rating", "setting": "purple nutsedge; [6]", "value": 0}, {"measurement": "Plant response rating, Nutsedge", "setting": "purple nutsedge; [7]", "value": 0}, {"measurement": "Nutsedge plant response rating", "setting": "purple nutsedge; [8]", "value": 0}, {"measurement": "Rice plant response rating", "setting": "rice; [9]", "value": 0}, {"measurement": "Rice plant response rating", "setting": "rice; [10]", "value": 0}, {"measurement": "Rice plant response rating", "setting": "rice; [11]", "value": 0}, {"measurement": "Rice plant response rating", "setting": "rice; [12]", "value": 0}, {"measurement": "S. Flatsedge plant response rating", "setting": "smallflower flatsedge; [9]", "value": 0}, {"measurement": "S. Flatsedge plant response rating", "setting": "smallflower flatsedge; [10]", "value": 0}, {"measurement": "S. Flatsedge plant response rating", "setting": "smallflower flatsedge; [11]", "value": 0}, {"measurement": "S. Flatsedge plant response rating", "setting": "smallflower flatsedge; [12]", "value": 0}, {"measurement": "Ducksalad plant response rating", "setting": "duck salad; [9]", "value": 0}, {"measurement": "Ducksalad plant response rating", "setting": "duck salad; [10]", "value": 0}, {"measurement": "Ducksalad plant response rating", "setting": "duck salad; [11]", "value": 0}, {"measurement": "Ducksalad plant response rating", "setting": "duck salad; [12]", "value": 0}, {"measurement": "Barnyardgrass plant response rating", "setting": "bamyardgrass; [9]", "value": 0}, {"measurement": "Barnyardgrass plant response rating", "setting": "bamyardgrass; [10]", "value": 0}, {"measurement": "Barnyardgrass plant response rating", "setting": "bamyardgrass; [11]", "value": 0}, {"measurement": "Barnyardgrass plant response rating", "setting": "bamyardgrass; [12]", "value": 0}]}]}
